Laboratory results: PubChem BioAssay AID1745844 (Carcinogenic Potency Database (CPDB), 2022)
“And” between values parts separate entries of the source, which are not always exact repeats. Equal values may be shown once. The source made the active and inactive calls. How the calls were made is not given here.

Tested on: rodent lifetime carcinogenesis bioassay, tumor incidence TD50
Test: chronic cancer bioassays in animals – CPDB, compiled studies (AID 1745844)
[1] = mouse, strain B6C3F1, females, in feed, site: any site (literature study), lesion: several types, types named in the paper, dosed 103 weeks, study length 105 weeks

c1ccc2occc2c1
TD50 (mouse, strain B6C3F1, females, by gavage, site: any site (literature study), lesion: several types, types named in the paper, dosed 103 weeks, study length 104 weeks): 45.9 mg/kg/day
TD50 (mouse, strain B6C3F1, females, by gavage, site: forestomach + liver + lung, lesion: squamous-cell carcinoma + squamous-cell papilloma + hepatocellular adenoma + alveolar/bronchiolar adenoma + alveolar/bronchiolar, dosed 103 weeks, study length 104 weeks): 33.4 mg/kg/day
TD50 (mouse, strain B6C3F1, females, by gavage, site: forestomach, lesion: squamous-cell carcinoma + squamous-cell papilloma, dosed 103 weeks, study length 104 weeks): 145 mg/kg/day
TD50 (mouse, strain B6C3F1, females, by gavage, site: forestomach, lesion: squamous-cell papilloma, dosed 103 weeks, study length 104 weeks): 172 mg/kg/day
TD50 (mouse, strain B6C3F1, females, by gavage, site: liver, lesion: hepatocellular adenoma + hepatocellular carcinoma + neoplastic nodule, dosed 103 weeks, study length 104 weeks): 36.4 mg/kg/day
TD50 (mouse, strain B6C3F1, females, by gavage, site: liver, lesion: hepatocellular adenoma + hepatocellular carcinoma, dosed 103 weeks, study length 104 weeks): 36.4 mg/kg/day
TD50 (mouse, strain B6C3F1, females, by gavage, site: liver, lesion: hepatocellular adenoma, dosed 103 weeks, study length 104 weeks): 34.4 mg/kg/day
TD50 (mouse, strain B6C3F1, females, by gavage, site: lung, lesion: alveolar/bronchiolar adenoma + alveolar/bronchiolar carcinoma, dosed 103 weeks, study length 104 weeks): 174 mg/kg/day
TD50 (mouse, strain B6C3F1, females, by gavage, site: lung, lesion: alveolar/bronchiolar adenoma, dosed 103 weeks, study length 104 weeks): 224 mg/kg/day
TD50 (mouse, strain B6C3F1, females, by gavage, site: multiple organs + spleen, lesion: malignant lymphoma, undifferentiated type, dosed 103 weeks, study length 104 weeks): 322 mg/kg/day
TD50 (mouse, strain B6C3F1, males, by gavage, site: any site (literature study), lesion: several types, types named in the paper, dosed 103 weeks, study length 104 weeks): 54.3 mg/kg/day
TD50 (mouse, strain B6C3F1, males, by gavage, site: forestomach + liver + lung, lesion: squamous-cell carcinoma + squamous-cell papilloma + hepatocellular adenoma + hepatoblastoma + hepatocellular carcinoma + alveolar/, dosed 103 weeks, study length 104 weeks): 23.9 mg/kg/day
TD50 (mouse, strain B6C3F1, males, by gavage, site: forestomach, lesion: squamous-cell carcinoma + squamous-cell papilloma, dosed 103 weeks, study length 104 weeks): 108 mg/kg/day
TD50 (mouse, strain B6C3F1, males, by gavage, site: forestomach, lesion: squamous-cell carcinoma, dosed 103 weeks, study length 104 weeks): 383 mg/kg/day
TD50 (mouse, strain B6C3F1, males, by gavage, site: forestomach, lesion: squamous-cell papilloma, dosed 103 weeks, study length 104 weeks): 154 mg/kg/day
TD50 (mouse, strain B6C3F1, males, by gavage, site: liver, lesion: hepatoblastoma + hepatocellular carcinoma, dosed 103 weeks, study length 104 weeks): 114 mg/kg/day
TD50 (mouse, strain B6C3F1, males, by gavage, site: liver, lesion: hepatoblastoma, dosed 103 weeks, study length 104 weeks): 102 mg/kg/day
TD50 (mouse, strain B6C3F1, males, by gavage, site: liver, lesion: hepatocellular adenoma + hepatoblastoma + hepatocellular carcinoma, dosed 103 weeks, study length 104 weeks): 19.8 mg/kg/day
TD50 (mouse, strain B6C3F1, males, by gavage, site: liver, lesion: hepatocellular adenoma + hepatocellular carcinoma + neoplastic nodule, dosed 103 weeks, study length 104 weeks): 21.3 mg/kg/day
TD50 (mouse, strain B6C3F1, males, by gavage, site: liver, lesion: hepatocellular adenoma + hepatocellular carcinoma, dosed 103 weeks, study length 104 weeks): 21.3 mg/kg/day
TD50 (mouse, strain B6C3F1, males, by gavage, site: liver, lesion: hepatocellular adenoma, dosed 103 weeks, study length 104 weeks): 20.5 mg/kg/day
TD50 (mouse, strain B6C3F1, males, by gavage, site: lung, lesion: alveolar/bronchiolar adenoma + alveolar/bronchiolar carcinoma, dosed 103 weeks, study length 104 weeks): 160 mg/kg/day
TD50 (mouse, strain B6C3F1, males, by gavage, site: lung, lesion: alveolar/bronchiolar adenoma, dosed 103 weeks, study length 104 weeks): 136 mg/kg/day
TD50 (mouse, strain B6C3F1, males, by gavage, site: multiple organs, lesion: malignant lymphoma, lymphocytic type, dosed 103 weeks, study length 104 weeks): 919 mg/kg/day
TD50 (rat, strain Fischer 344, females, by gavage, site: any site (literature study), lesion: several types, types named in the paper, dosed 103 weeks, study length 104 weeks): 577 mg/kg/day
TD50 (rat, strain Fischer 344, females, by gavage, site: kidney, lesion: tubular-cell adenocarcinoma, dosed 103 weeks, study length 104 weeks): 424 mg/kg/day
TD50 (rat, strain Fischer 344, females, by gavage, site: liver, lesion: hepatocellular adenoma + hepatocellular carcinoma + neoplastic nodule, dosed 103 weeks, study length 104 weeks): 2090 mg/kg/day
TD50 (rat, strain Fischer 344, females, by gavage, site: lung, lesion: alveolar/bronchiolar adenoma + alveolar/bronchiolar carcinoma, dosed 103 weeks, study length 104 weeks): 418 mg/kg/day
TD50 (rat, strain Fischer 344, females, by gavage, site: lung, lesion: alveolar/bronchiolar adenoma, dosed 103 weeks, study length 104 weeks): 530 mg/kg/day
TD50 (rat, strain Fischer 344, females, by gavage, site: subcutaneous tissue, lesion: neurilemoma, malignant, dosed 103 weeks, study length 104 weeks): 98.8 mg/kg/day
TD50 (rat, strain Fischer 344, females, by gavage, site: tongue, lesion: squamous-cell papilloma, dosed 103 weeks, study length 104 weeks): 574 mg/kg/day
TD50 (rat, strain Fischer 344, males, by gavage, site: any site (literature study), lesion: several types, types named in the paper, dosed 103 weeks, study length 104 weeks): 22.5 mg/kg/day
TD50 (rat, strain Fischer 344, males, by gavage, site: liver + multiple organs, lesion: mononuclear-cell leukemia, dosed 103 weeks, study length 104 weeks): 55.3 mg/kg/day
TD50 (rat, strain Fischer 344, males, by gavage, site: lung, lesion: alveolar/bronchiolar carcinoma, dosed 103 weeks, study length 104 weeks): 166 mg/kg/day
TD50 (rat, strain Fischer 344, males, by gavage, site: mammary gland, lesion: fibroadenoma, dosed 103 weeks, study length 104 weeks): 271 mg/kg/day
TD50 (rat, strain Fischer 344, males, by gavage, site: pituitary gland, lesion: adenoma, NOS, dosed 103 weeks, study length 104 weeks): 45.8 mg/kg/day
TD50 (rat, strain Fischer 344, males, by gavage, site: testis, lesion: interstitial-cell tumor, dosed 103 weeks, study length 104 weeks): 8.03 mg/kg/day (inactive)
TD50 (rat, strain Fischer 344, males, by gavage, site: thyroid gland, lesion: follicular-cell carcinoma, dosed 103 weeks, study length 104 weeks): 389 mg/kg/day

N
carcinogen call (mouse, strain C3H (MTV+), females, in drinking water, site: mammary gland, lesion: adenocarcinoma, dosed 104 weeks, study length 104 weeks): negative (inactive)
carcinogen call (mouse, strain Swiss, females, in drinking water, site: lung, lesion: several types, types named in the paper, dosed 119 weeks, study length 121 weeks): negative (inactive)
TD50 (mouse, strain Swiss, males, in drinking water, site: liver, lesion: several types, types named in the paper, dosed 120 weeks, study length 124 weeks): 26700 mg/kg/day
TD50 (mouse, strain Swiss, males, in drinking water, site: lung, lesion: adenocarcinoma, dosed 120 weeks, study length 124 weeks): 7330 mg/kg/day (inactive)
TD50 (mouse, strain Swiss, males, in drinking water, site: lung, lesion: several types, types named in the paper, dosed 120 weeks, study length 124 weeks): 15300 mg/kg/day (inactive)

CC1CN(N=O)CC(C)O1 (configuration not stated)
TD50 (hamster, strain Syrian Golden, females, by gavage, site: any site (literature study), lesion: several types, types named in the paper, dosed 59 weeks, study length 83 weeks): 1.55 mg/kg/day
TD50 (hamster, strain Syrian Golden, females, by gavage, site: forestomach, lesion: several types, types named in the paper, dosed 59 weeks, study length 83 weeks): 9.45 mg/kg/day
TD50 (hamster, strain Syrian Golden, females, by gavage, site: gall bladder, lesion: several types, types named in the paper, dosed 59 weeks, study length 83 weeks): 12.9 mg/kg/day
carcinogen call (hamster, strain Syrian Golden, females, by gavage, site: larynx, lesion: squamous-cell papilloma, dosed 59 weeks, study length 83 weeks): positive
TD50 (hamster, strain Syrian Golden, females, by gavage, site: liver, lesion: several types, types named in the paper, dosed 59 weeks, study length 83 weeks): 11 mg/kg/day
TD50 (hamster, strain Syrian Golden, females, by gavage, site: lung, lesion: several types, types named in the paper, dosed 59 weeks, study length 83 weeks): 34.6 mg/kg/day
TD50 (hamster, strain Syrian Golden, females, by gavage, site: pancreas, lesion: several types, types named in the paper, dosed 59 weeks, study length 83 weeks): 5.75 mg/kg/day
TD50 (hamster, strain Syrian Golden, females, by gavage, site: pancreatic duct, lesion: adenoma, dosed 59 weeks, study length 83 weeks): 6.99 mg/kg/day
TD50 (hamster, strain Syrian Golden, females, by gavage, site: pancreatic duct, lesion: carcinoma, dosed 59 weeks, study length 83 weeks): 32.1 mg/kg/day
TD50 (hamster, strain Syrian Golden, females, by gavage, site: several sites, sites named in the paper, lesion: several types, types named in the paper, dosed 59 weeks, study length 83 weeks): 9.17 mg/kg/day and 16.9 mg/kg/day
TD50 (hamster, strain Syrian Golden, females, by gavage, site: trachea, lesion: papillary polyp, dosed 59 weeks, study length 83 weeks): 6.4 mg/kg/day
TD50 (hamster, strain Syrian Golden, males, by gavage, site: any site (literature study), lesion: several types, types named in the paper, dosed 66 weeks, study length 87 weeks): 1.68 mg/kg/day
TD50 (hamster, strain Syrian Golden, males, by gavage, site: forestomach, lesion: several types, types named in the paper, dosed 66 weeks, study length 87 weeks): 2.91 mg/kg/day
TD50 (hamster, strain Syrian Golden, males, by gavage, site: larynx, lesion: squamous-cell papilloma, dosed 66 weeks, study length 87 weeks): 27.3 mg/kg/day
TD50 (hamster, strain Syrian Golden, males, by gavage, site: liver, lesion: several types, types named in the paper, dosed 66 weeks, study length 87 weeks): 10.1 mg/kg/day
TD50 (hamster, strain Syrian Golden, males, by gavage, site: lung, lesion: several types, types named in the paper, dosed 66 weeks, study length 87 weeks): 1.21 mg/kg/day
TD50 (hamster, strain Syrian Golden, males, by gavage, site: pancreas, lesion: several types, types named in the paper, dosed 66 weeks, study length 87 weeks): 2.78 mg/kg/day
TD50 (hamster, strain Syrian Golden, males, by gavage, site: pancreatic duct, lesion: adenoma, dosed 66 weeks, study length 87 weeks): 21.2 mg/kg/day
TD50 (hamster, strain Syrian Golden, males, by gavage, site: pancreatic duct, lesion: carcinoma, dosed 66 weeks, study length 87 weeks): 6.67 mg/kg/day
TD50 (hamster, strain Syrian Golden, males, by gavage, site: trachea, lesion: papillary polyp, dosed 66 weeks, study length 87 weeks): 10.5 mg/kg/day

OCCO
carcinogen call [1]: negative (inactive)
TD50 (mouse, strain B6C3F1, females, in feed, site: lung, lesion: alveolar/bronchiolar adenoma + alveolar/bronchiolar carcinoma, dosed 103 weeks, study length 105 weeks): 11300 mg/kg/day
TD50 (mouse, strain B6C3F1, males, in feed, site: Harderian gland, lesion: adenoma + carcinoma, dosed 103 weeks, study length 104 weeks): 19200 mg/kg/day (inactive)
TD50 (mouse, strain B6C3F1, males, in feed, site: any site (literature study), lesion: several types, types named in the paper, dosed 103 weeks, study length 104 weeks): 9980 mg/kg/day
TD50 (mouse, strain B6C3F1, males, in feed, site: liver, lesion: hepatocellular adenoma + hepatocellular carcinoma + neoplastic nodule, dosed 103 weeks, study length 104 weeks): 48100 mg/kg/day

Cc1c(N)cccc1N
TD50 [1]: 75.9 mg/kg/day
TD50 (mouse, strain B6C3F1, females, in feed, site: liver, lesion: hepatocellular adenoma + hepatocellular carcinoma + neoplastic nodule, dosed 103 weeks, study length 105 weeks): 129 mg/kg/day
TD50 (mouse, strain B6C3F1, females, in feed, site: liver, lesion: hepatocellular carcinoma, dosed 103 weeks, study length 105 weeks): 181 mg/kg/day (inactive)
TD50 (mouse, strain B6C3F1, males, in feed, site: all sites, lesion: lymphoma, dosed 103 weeks, study length 104 weeks): 20.5 mg/kg/day (inactive)
carcinogen call (rat, strain Fischer 344, females, in feed, site: any site (literature study), lesion: several types, types named in the paper, dosed 103 weeks, study length 105 weeks): negative (inactive)
TD50 (rat, strain Fischer 344, females, in feed, site: liver, lesion: hepatocellular adenoma + hepatocellular carcinoma + neoplastic nodule, dosed 103 weeks, study length 105 weeks): 455 mg/kg/day
TD50 (rat, strain Fischer 344, males, in feed, site: liver, lesion: hepatocellular adenoma + hepatocellular carcinoma + neoplastic nodule, dosed 103 weeks, study length 104 weeks): 117 mg/kg/day
TD50 (rat, strain Fischer 344, males, in feed, site: liver, lesion: hepatocellular carcinoma + neoplastic nodule, dosed 103 weeks, study length 104 weeks): 117 mg/kg/day (inactive)
TD50 (rat, strain Fischer 344, males, in feed, site: pancreatic islets, lesion: islet-cell adenoma, dosed 103 weeks, study length 104 weeks): 140 mg/kg/day
